Test results as given in BigSolDB 2.1.

COc1cc(C=O)ccc1O
solubility (mole fraction)
Conditions	293.15 K	298.15 K	303.15 K	308.15 K	313.15 K	318.15 K	323.15 K
in ethanol	0.0713	0.0779	0.0841	0.0926	0.105	0.118	0.141
in water	0.00116	0.00141	0.00179	0.00202	0.00234	0.00267	0.00298
